{
  "source": "patent US20040157930A1",
  "about": "“Histone deacetylase enzyme-inhibiting derivatives of hydroxamic acid as new cytokine synthesis-inhibiting anti-inflammatory drugs” (priority 2001, published 2004)",
  "key": {"[1]": {"test_system": "Con A-induced liver injury", "assay": "Con A-induced liver injury, serum ALT", "format": "in vivo, C57B16 mice", "settings": "single dose 50 mg/kg i.p. 1 h before Con A i.v.; vehicle 15.190±2.580", "description": "After 24 h, serum amino-alanine transferase was measured. Intravenous injection of Con A results in hepatic cell death within 12-24 h with markedly elevated serum levels of hepatic enzymes such as alanine amino transaminase (ALT)."}, "IFNγ": {"test_system": "IFNγ", "assay": "IFNγ synthesis by PBMCs stimulated with IL-12 and IL-18 (ELISA)", "format": "cell-based", "settings": "Homo sapiens; PBMC, IL-12 10 ng/ml + IL-18 20 ng/ml, 48 h; read-out: IFNγ (from IL-12 + IL-18) IC50", "description": "Cytokine IFNγ is produced by the T lymphocytes following their stimulation by pro-inflammatory cytokines, especially IL-12 and IL-18 (Dinarello C. A. and Moldawer L. L. Proinflammatory and anti-inflammatory cytokines in rheumatoid arthritis. A primer for clinicians. 2nd Edition, Amgen Inc., 2000).\nAt the end, the cells were stimulated for 48 hours in the presence of the compound by simultaneous addition of recombinant IL-12 (10 ng/ml) and recombinant IL-18 (20 ng/ml). The quantity of IFNγ produced was determined with a commercial ELISA assay."}, "IL-12 (p70)": {"test_system": "IL-12 (p70)", "assay": "Inhibition of IL-12 production by cultured monocytes (ELISA)", "format": "cell-based", "settings": "nonadherent human monocytes", "description": "Venous blood was obtained from consenting adults and separated over Ficoll-Hypaque. The PBMC fraction was washed and adjusted to five million cells per ml. […] The cells were stimulated with LPS, soluble OKT3, or cytokines, and after 24 or 48 h At 37° C. the supernatant was removed and frozen for cytokine assays. Monocytes were isolated by centrifugation over Percoll, washed, suspended in RPMI with 10% FCS, and aliquoted at 2 million cells per ml in Petriperm Teflon-coated culture dishes (Sigma). The ELISA for human IL-12 (p70) was purchased from Endogen (Woburn, Mass.)."}, "[2]": {"test_system": "mouse peritoneal macrophages", "assay": "Nitric oxide production from mouse peritoneal macrophages (Griess)", "format": "cell-based, C57BLy6 mice", "settings": "TNF-α plus IFN-γ stimulation, 24 h", "description": "C57BLy6 mice were injected i.p. with 1 ml of sterile thioglycolate broth and killed after 5 days, and macrophages were isolated using instillation of 10 ml of ice-cold PBS into the peritoneal cavity. The cells were centrifuged (350×g) and 3 ml of erythrocyte lysing reagent (PharMingen) was added for 10 min.\nSeven milliliters of DMEM containing 5% FCS was added and the cells were centrifuged at 4° C. The cells were resuspended in DMEM at 1 million per ml and 0.5 ml were added to wells of a 48-well plate. […] After 24 h, NO levels in the supernatant were determined using the Griess reagent as described in Am.J.Physiol.Cell Physiol. (2001), 280, C441-C450."}},
  "data": [
    {"smiles": "O=C(CCCCCCC(=O)Nc1ccccc1)NO", "note": "[SAHA, suberoylanilide hydroxamic acid]", "values": [
      {"measurement": "24-h level of serum ALT (mean±SE)", "setting": "[1]", "value": "8.144±2.091", "unit": "units/liter"},
      {"measurement": "IC50", "setting": "IFNγ", "value": 740, "unit": "nM"},
      {"measurement": "reduction in LPS/IFN-γ-induced IL-12 production", "setting": "IL-12 (p70); 200 nM", "value": 55, "unit": "%"},
      {"measurement": "reduction in LPS/IFN-γ-induced IL-12 production", "setting": "IL-12 (p70); 400 nM", "value": 86, "unit": "%"},
      {"measurement": "reduction of NO production", "setting": "[2]; 200 nM", "value": 50, "unit": "%"},
      {"measurement": "reduction of NO production", "setting": "[2]; 400 nM", "value": 80, "unit": "%"},
      {"measurement": "reduction of NO production", "setting": "[2]; 800 nM", "value": 85, "unit": "%"}
    ]}
  ]
}
